The source made the active and inactive calls.
Experiments:
[1] = molecular target: T1, Cytochrome P450 1A2 (Homo sapiens, UniProt P05177);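 further: PubChem cytochrome P450 panel assay, CYP1A2 panel member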
T1 sequence (P05177 whole entry): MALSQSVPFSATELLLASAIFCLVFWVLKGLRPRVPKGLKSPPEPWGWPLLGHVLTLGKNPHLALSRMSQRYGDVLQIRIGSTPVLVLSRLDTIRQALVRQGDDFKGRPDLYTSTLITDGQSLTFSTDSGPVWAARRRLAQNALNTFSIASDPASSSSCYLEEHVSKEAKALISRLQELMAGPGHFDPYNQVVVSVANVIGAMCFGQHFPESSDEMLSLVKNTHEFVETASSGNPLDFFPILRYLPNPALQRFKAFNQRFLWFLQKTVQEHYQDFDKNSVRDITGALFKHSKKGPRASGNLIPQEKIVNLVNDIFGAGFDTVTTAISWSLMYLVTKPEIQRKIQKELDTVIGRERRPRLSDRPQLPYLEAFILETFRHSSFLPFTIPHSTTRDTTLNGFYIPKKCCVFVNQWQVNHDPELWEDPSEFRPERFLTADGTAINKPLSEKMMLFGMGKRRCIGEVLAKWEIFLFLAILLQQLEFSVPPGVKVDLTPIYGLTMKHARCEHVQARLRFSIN

[2] = Luminescence Cell-Based Dose Retest to Confirm Inhibitors of Cancer Stem Cells. [Related pubchem assays (depositor defined):AID2717, AID2721]; type: functional; conditions: Homo sapiens
[3] = molecular target: Cytochrome P450 2C9 (Homo sapiens, UniProt P11712)
Sequence of Cytochrome P450 2C9 (P11712 whole entry): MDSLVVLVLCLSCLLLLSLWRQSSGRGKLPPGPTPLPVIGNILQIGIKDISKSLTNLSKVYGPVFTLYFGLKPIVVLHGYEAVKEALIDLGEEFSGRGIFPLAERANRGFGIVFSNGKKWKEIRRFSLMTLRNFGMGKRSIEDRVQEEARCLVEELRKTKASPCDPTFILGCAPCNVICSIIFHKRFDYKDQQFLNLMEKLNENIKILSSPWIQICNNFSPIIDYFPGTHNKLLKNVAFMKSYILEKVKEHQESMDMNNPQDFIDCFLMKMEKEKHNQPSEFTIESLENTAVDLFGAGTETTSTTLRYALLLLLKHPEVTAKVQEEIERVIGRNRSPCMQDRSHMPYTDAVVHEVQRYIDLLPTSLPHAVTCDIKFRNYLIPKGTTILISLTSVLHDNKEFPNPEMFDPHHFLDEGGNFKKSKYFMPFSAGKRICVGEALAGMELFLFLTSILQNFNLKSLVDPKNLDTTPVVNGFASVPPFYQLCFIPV

[4] = molecular target: Luciferin 4-monooxygenase (Photinus pyralis, UniProt P08659); test: inhibition of purified Photinus pyralis luciferase – biochemical, luminescence, dose response (AID 1891)
Sequence of Luciferin 4-monooxygenase (P08659 whole entry): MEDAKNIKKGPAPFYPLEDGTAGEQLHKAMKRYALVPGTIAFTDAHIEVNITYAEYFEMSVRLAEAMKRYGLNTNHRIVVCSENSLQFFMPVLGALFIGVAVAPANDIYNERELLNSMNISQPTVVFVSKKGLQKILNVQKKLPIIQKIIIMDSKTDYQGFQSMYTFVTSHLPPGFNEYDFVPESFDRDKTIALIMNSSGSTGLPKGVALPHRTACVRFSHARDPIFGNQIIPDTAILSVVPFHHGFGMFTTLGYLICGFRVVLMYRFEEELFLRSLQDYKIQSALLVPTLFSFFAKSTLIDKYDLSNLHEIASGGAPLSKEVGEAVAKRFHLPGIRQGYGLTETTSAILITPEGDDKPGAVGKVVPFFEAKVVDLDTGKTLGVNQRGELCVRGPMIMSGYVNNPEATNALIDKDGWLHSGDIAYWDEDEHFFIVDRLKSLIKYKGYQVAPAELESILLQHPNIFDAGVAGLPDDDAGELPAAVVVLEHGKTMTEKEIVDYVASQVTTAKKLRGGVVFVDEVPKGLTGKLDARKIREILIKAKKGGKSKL

[5] = Luminescence Cell-Based Dose Confirmation HTS to Identify Inhibitors of Platelet Dense Granule Release. [Related pubchem assays: 1663 (Primary HTS), 1678 (Summary of Project)]; type: functional
[6] = luciferase reporter signal suppression in cells – H4 neuroglioma cells, luminescence, dose response (AID 1990); type: functional, cell-based
[7] = Luminescence Cell-Based Dose Response HTS to Identify Inhibitors of 5'UTR Stem-Loop Driven Prion Protein mRNA Translation in H4 Neuroglioblastoma Cells. [Related pubchem assays: 1827 (Project Summary), 1813 (Primary HTS)]; type: functional
[8] = alpha-synuclein stem-loop luciferase translation blockers – H4 neuroglioma cells, luminescence, confirmation (AID 1988); type: functional, cell-based
[9] = molecular target: Cytochrome P450 2C19 (Homo sapiens, UniProt P33261); test: Cytochrome panel assay with activity outcomes. Panel member name: p450-cyp2c19 Compounds with AC50 equal or less than 10 uM are considered active; type: functional
Sequence of Cytochrome P450 2C19 (P33261 whole entry): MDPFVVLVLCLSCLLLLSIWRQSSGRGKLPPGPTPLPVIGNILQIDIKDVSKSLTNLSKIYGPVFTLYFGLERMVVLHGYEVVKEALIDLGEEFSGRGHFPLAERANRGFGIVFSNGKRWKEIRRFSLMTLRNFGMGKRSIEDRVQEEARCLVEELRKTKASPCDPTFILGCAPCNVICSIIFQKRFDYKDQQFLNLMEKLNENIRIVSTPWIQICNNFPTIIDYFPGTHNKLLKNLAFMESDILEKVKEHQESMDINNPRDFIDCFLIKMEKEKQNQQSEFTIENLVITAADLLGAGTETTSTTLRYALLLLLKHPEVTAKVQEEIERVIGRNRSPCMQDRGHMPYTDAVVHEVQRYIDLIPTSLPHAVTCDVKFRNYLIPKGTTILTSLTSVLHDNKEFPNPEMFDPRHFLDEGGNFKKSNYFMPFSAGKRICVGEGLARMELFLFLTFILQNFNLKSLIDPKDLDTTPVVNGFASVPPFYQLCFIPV

[10] = Luminescence Cell-Based Dose Confirmation HTS to Identify Activators of 5'UTR Stem-Loop Driven Alpha-Synuclein mRNA Translation in H4 Neuroglioblastoma Cells. [Related pubchem assays: 1829 (Project Summary), 1814 (Primary HTS)]; type: functional
[11] = Luminescence Cell-Based Dose Response HTS to Identify Activators of Luciferase Translation or Activity in H4 […] Cells. [Related pubchem assays: 1829 (Project Summary), 1814 (Primary HTS)]; type: functional
[12] = test system: H4; test: Luminescence Cell-Based Dose Response HTS to Identify Activators of 5'UTR Stem-Loop Driven Prion Protein mRNA Translation in H4 Neuroglioblastoma Cells. [Related pubchem assays: 1829 (Project Summary), 1814 (Primary HTS)]; type: functional; conditions: Homo sapiens
[13] = molecular target: Cytochrome P450 2D6 (Homo sapiens, UniProt P10635);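 further: CYP2D6 member of a cytochrome P450 panel assay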
Sequence of Cytochrome P450 2D6 (P10635 whole entry): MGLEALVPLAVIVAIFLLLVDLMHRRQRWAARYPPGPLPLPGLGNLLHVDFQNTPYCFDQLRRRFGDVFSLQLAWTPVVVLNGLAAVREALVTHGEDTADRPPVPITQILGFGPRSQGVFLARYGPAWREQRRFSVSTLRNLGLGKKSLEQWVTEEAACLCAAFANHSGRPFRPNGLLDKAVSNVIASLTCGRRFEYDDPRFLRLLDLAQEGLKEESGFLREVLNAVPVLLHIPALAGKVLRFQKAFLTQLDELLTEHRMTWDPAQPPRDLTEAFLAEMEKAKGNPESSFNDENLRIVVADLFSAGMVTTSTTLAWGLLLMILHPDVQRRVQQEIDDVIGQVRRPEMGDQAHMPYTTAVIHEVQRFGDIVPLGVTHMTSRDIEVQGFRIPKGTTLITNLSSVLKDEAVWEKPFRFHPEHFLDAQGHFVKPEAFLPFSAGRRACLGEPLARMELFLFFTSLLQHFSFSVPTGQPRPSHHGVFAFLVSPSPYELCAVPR

SMILES: CC(=O)N1CCC2(CCN(Cc3cc(C(F)(F)F)cc(C(F)(F)F)c3)CC2)CC1
- AC50 [1]: 15.8 µM (inconclusive)

SMILES: COC(=O)c1ccc(/C=C/c2c(-c3ccc(OC)cc3)oc3ccccc23)cc1
- AC50 [2]: 2.47 µM (active)

SMILES: O=c1c2ccccc2c2ccccc2c(=O)n1-c1cc2c3ccccc3ccc2c2ccccc12
- AC50 [1]: 6.31 µM (inconclusive)

SMILES: CCc1ccc2c(c1)cc(CN(C(S)=Nc1cccc(C)c1)C1CC1)c1nnnn12
- AC50 [1]: 12.6 µM (inconclusive)
- AC50 [3]: 2.82 µM (inconclusive)

SMILES: Cc1cccc(NC(=O)CCCNC(=O)c2ccc(Cl)cc2)n1
- EC50 [4]: > 112 µM (not active)
- EC50 [5]: 16 µM (active)

SMILES: COc1ccc(C)cc1N(C(=O)c1ccccc1F)c1nc2ccccc2s1
- EC50 [6]: > 120 µM (not active)
- EC50 [7]: > 120 µM (not active)
- EC50 [8]: > 120 µM (not active)

SMILES: O=C(CCc1ccccc1)NCc1cccnc1
- AC50 [1]: 31.6 µM (inconclusive)
- AC50 [3]: 1 µM (inconclusive)

SMILES: Cc1nc2ccccc2nc(C)c1=NO
- AC50 [1]: 17.8 µM (inconclusive)
- AC50 [9]: inconclusive

SMILES: COc1ccc(C(=O)Nc2ccccc2C(=O)Nc2cccnc2)cc1
- EC50 [4]: 1.61 µM (active)
- EC50 [5]: 6.59 µM (active)

SMILES: c1ccc2[nH]c(-c3cscn3)nc2c1 [THIABENDAZOLE]
- AC50 [1]: 0.126 µM (active)
- EC50 [10]: 14.3 µM (active)
- EC50 [11]: 18.7 µM (active)
- AC50 ([9]; read-out: AC50): 7.94 µM (inconclusive)
- EC50 [12]: 23.7 µM (active)
- AC50 [13]: 10 µM (inconclusive)

SMILES: O=C(N[C@@H](c1ccccc1)[C@@H]1C[C@H]1C(=O)NCc1ccccn1)OCc1ccccc1
- AC50 [1]: 10 µM (inconclusive)
- AC50 [3]: 20 µM (inconclusive)

SMILES: COc1ccc(C(=O)/C=C2/C(=O)Nc3ccccc32)cc1
- EC50 [10]: 18.1 µM (active)
- EC50 [11]: > 120 µM (not active)
- AC50 [2]: 4.39 µM (active)
- EC50 [12]: 17.1 µM (active)

SMILES: c1ccc(CN2CC[C@@H](CNc3ncnc4ccccc34)C2)cc1
- AC50 [1]: 6.31 µM (inconclusive)

SMILES: Cc1c(Cc2ccccc2)sc(NC(=O)/C=C/c2cccc3ccccc23)c1C(N)=O
- EC50 [6]: 13.3 µM (inconclusive)
- EC50 [7]: 10.9 µM (active)
- EC50 [8]: 5.84 µM (active)

SMILES: COc1cccc(/N=c2\oc3c(C)ncc(CO)c3cc2C(=O)Nc2ccccc2OC)c1
- EC50 [6]: > 120 µM (not active)
- EC50 [7]: > 120 µM (not active)
- EC50 [8]: > 120 µM (not active)

SMILES: Cc1ccccc1NC(=O)c1cc(S(=O)(=O)N2CCOCC2)cn1C
- EC50 [4]: > 112 µM (not active)
- EC50 [5]: > 112 µM (not active)

SMILES: O=C(Nc1ccccc1)OC[C@H](CN1CCCCC1)OC(=O)Nc1ccccc1
- AC50 [1]: 12.6 µM (inconclusive)
- AC50 ([9]; read-out: AC50): 5.01 µM (inconclusive)

SMILES: N=C(NOC(=O)c1ccccc1Cl)c1cccnc1
- EC50 [4]: 23.6 µM (active)
- EC50 [5]: > 112 µM (not active)

— ChEMBL document CHEMBL1201862, “PubChem BioAssay data set” (2004)
